Drawing on US8304444B2, “Pyrazole carboxylic acid amides useful as microbiocides” (Syngenta Crop Protection, LLC, priority 2007, dated 2012), this text covers inhibition for 2 compounds.

Common to all, as to format: cell-based
One test relates to Mycosphaerella arachidis. Briefly: Action against Mycosphaerella arachidis, fungal growth assay. The following applies: 0.002% active ingredient, PDB broth, 24° C., photometric after 6-7 days. The method, then: (§1) Action Against Mycosphaerella arachidis (Early Leaf Spot of Groundnut; Cercospora arachidicola [anamorph])—Fungal Growth Assay Conidia of the fungus from cryogenic storage are directly mixed into nutrient broth (PDB potato dextrose broth). After placing a (DMSO) solution of the test compounds (0.002% active ingredient) into a microtiter plate (96-well format) the nutrient broth containing the fungal spores is added. The test plates are incubated at 24° C. and the inhibition of growth is measured photometrically after 6-7 days. The activity of a compound is expressed as fungal growth inhibition (0=no growth inhibition, ratings of 80% to 99% mean good to very good inhibition, 100%=complete inhibition). Compounds 1.01, 1.14 and 1.15 show very good activity in this test (≦80% inhibition). Compounds 1.07 and 2.01 show good activity in this test (≦50% inhibition).

The test system of the next test is Septoria tritici. Briefly: Action against Septoria tritici, fungal growth assay. The following applies: Zymoseptoria tritici; 0.002% active ingredient, PDB broth, 24° C., photometric after 72 hrs. The method, then: as §1, with “Septoria tritici—Fungal” for “Mycosphaerella arachidis (Early Leaf Spot of Groundnut; Cercospora arachidicola [anamorph])—Fungal”, “determined” for “measured”, “72 hrs.” for “6-7 days.”, “1.07, 1.14, 1.15, 1.76” for “1.14”, “2.01” for “1.15”, “inhibition).” for “inhibition). Compounds 1.07 and 2.01 show good activity in this test (≦50% inhibition).”

The subject of a further test is Monographella nivalis. Briefly: Action against Monographella nivalis (snow mould), fungal growth assay. The following applies: 0.002% active ingredient, PDB broth, 24° C., photometric after 72 hrs. The method, then:
Action Against Monographella nivalis (Anamorph: Fusarium nivale, Microdochium nivale; Snow Mould)—Fungal Growth Assay Conidia of the fungus from cryogenic storage are directly mixed into nutrient broth (PDB potato dextrose broth). After placing a DMSO-solution of the test compounds (0.002% active ingredient) into a microtiter plate (96-well format) the nutrient broth containing the fungal spores is added. The test plates are incubated at 24° C. and the inhibition of growth is measured photometrically after 72 hrs (0=no growth inhibition, ratings of 80% to 99% mean good to very good inhibition, 100%=complete inhibition). Compounds 1.14 and 1.15 show very good activity in this test (≦80% inhibition).

Test [1] has as its system Pseudocercosporella herpotrichoides var. acuformis. Nature of the test: Action against Pseudocercosporella herpotrichoides var. acuformis (eyespot/cereals), fungal growth assay. The following applies: Oculimacula yallundae; 0.002% active ingredient, PDB broth, 24° C., photometric after 72 hrs. The method, then:
as §1, with “Pseudocercosporella herpotrichoides var. acuformis (Eyespot/Cereals)—Fungal” for “Mycosphaerella arachidis (Early Leaf Spot of Groundnut; Cercospora arachidicola [anamorph])—Fungal”, “determined” for “measured”, “72 hrs.” for “6-7 days.”, “(≦30%” for “(≦80%”, “inhibition).” for “inhibition). Compounds 1.07 and 2.01 show good activity in this test (≦50% inhibition).”

Consider `COC(c1ccc(Cl)cc1Cl)C(C)NC(=O)c1cn(C)nc1C(F)F` (centres unmarked) [Compound 1.14, 3-difluoromethyl-1-methyl-1H-pyrazole-4-carboxylic acid [2-(2,4-dichlorophenyl)-2-methoxy-1-methyl-ethyl]-amide], for which the inhibition (usually the share of the control response that was lost under treatment) at 0.002 % strength with Mycosphaerella arachidis is at most 80%; in the test on Septoria tritici, at most 80%; with Monographella nivalis, at most 80%; in test [1] it was at most 30%.

With `CONC(c1ccc(Cl)cc1Cl)C(C)NC(=O)c1cn(C)nc1C(F)F` (centres unmarked) [Compound 1.76, 3-difluoromethyl-1-methyl-1H-pyrazole-4-carboxylic acid [2-(2,4-dichlorophenyl)-2-methoxyamino-1-methyl-ethyl]-amide], the inhibition at 0.002 % strength with Septoria tritici was at most 80%.
